Laboratory results reported in patent US20240376099A1, “COMPOUNDS AND COMPOSITIONS AS INHIBITORS OF ENDOSOMAL TOLL-LIKE RECEPTORS” (Novartis AG, priority 2016, published 2024).

These compounds were tested against T1, TLR8 (Homo sapiens, UniProt Q9NR97) (assay: huPBMC TLR8 Antagonist IL-6 TR-FRET Assay). Details: human PBMCs stimulated with ssRNA40 1 μg/ml (DOTAP), 14-16 hrs; IL-6 TR-FRET read-out.
T1 sequence (Q9NR97 27-1041): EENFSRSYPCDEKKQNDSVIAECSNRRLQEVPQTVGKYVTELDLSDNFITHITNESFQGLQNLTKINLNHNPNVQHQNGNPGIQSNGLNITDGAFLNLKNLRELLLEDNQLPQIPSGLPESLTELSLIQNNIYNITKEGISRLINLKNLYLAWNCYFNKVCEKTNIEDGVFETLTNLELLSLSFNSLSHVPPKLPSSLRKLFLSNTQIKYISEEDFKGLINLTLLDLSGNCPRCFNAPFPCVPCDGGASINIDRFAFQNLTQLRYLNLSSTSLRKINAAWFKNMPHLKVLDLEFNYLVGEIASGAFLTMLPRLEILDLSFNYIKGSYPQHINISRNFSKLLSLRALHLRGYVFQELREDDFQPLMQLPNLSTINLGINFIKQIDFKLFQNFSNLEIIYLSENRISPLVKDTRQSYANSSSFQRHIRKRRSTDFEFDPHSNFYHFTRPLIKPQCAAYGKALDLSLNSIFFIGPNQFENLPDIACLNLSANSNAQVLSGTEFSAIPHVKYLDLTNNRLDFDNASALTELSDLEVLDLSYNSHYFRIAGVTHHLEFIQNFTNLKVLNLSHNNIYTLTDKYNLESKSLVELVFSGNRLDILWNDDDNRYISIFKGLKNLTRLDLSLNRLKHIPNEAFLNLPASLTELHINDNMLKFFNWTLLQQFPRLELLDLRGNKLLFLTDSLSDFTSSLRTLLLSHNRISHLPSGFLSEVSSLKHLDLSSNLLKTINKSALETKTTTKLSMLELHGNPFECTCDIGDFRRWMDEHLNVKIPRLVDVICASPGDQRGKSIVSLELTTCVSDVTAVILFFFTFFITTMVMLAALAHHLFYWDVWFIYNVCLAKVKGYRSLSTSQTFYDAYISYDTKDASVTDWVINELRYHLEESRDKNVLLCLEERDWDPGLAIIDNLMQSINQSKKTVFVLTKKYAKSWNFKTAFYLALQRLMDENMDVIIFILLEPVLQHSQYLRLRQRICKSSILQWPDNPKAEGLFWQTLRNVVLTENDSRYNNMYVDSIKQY
Format: cell-based
Set-up: Fresh blood was collected from normal human donors; endogenous in cells; host or cells: human PBMCs from fresh donor blood
How it was run: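 Human PBMCs from fresh donor blood (150,000 cells/well) stimulated 14–16 h at 37 °C with DOTAP-complexed ssRNA40 (final 1 μg/ml for TLR8, 10 μg/mL for TLR7) or ODN2216 (final 0.3 μM, TLR9), 0.25% DMSO, ten-point 1/3 compound dilutions. Supernatant IL-6 read by HTRF (TLR8); IFNα by IFNα2b AlphaLISA (TLR7/TLR9).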

| IC50 [nM] | Compound |
| --- | --- |
| 55 | Cc1cc(N2CCc3c(c(C)nn3CC34CCC(N)(CC3)CC4)C2)c2ccncc2n1 [Compound No. 3, 4-((3-methyl-5-(2-methyl-1,7-naphthyridin-4-yl)-4,5,6,7-tetrahydro-1H-pyrazolo[4,3-c]pyridin-1-yl)methyl)bicyclo[2.2.2]octan-1-amine] |
| 135 | Cc1cc(N2CCc3c(c(C)nn3CC34CCC(NC5COC5)(CC3)CC4)C2)c2cnn(C)c2n1 [Compound No. 6, N-(4-((5-(1,6-dimethyl-1H-pyrazolo[3,4-b]pyridin-4-yl)-3-methyl-4,5,6,7-tetrahydro-1H-pyrazolo[4,3-c]pyridin-1-yl)methyl)bicyclo[2.2.2]octan-1-yl)oxetan-3-amine] |
| 201 | Cc1cc(N2CCc3c(c(C)nn3CC34CCC(NC(=O)[C@H]5COCCN5)(CC3)CC4)C2)c2cnn(C)c2n1 [Compound No. 9, (R)—N-(4-((5-(1,6-dimethyl-1H-pyrazolo[3,4-b]pyridin-4-yl)-3-methyl-4,5,6,7-tetrahydro-1H-pyrazolo[4,3-c]pyridin-1-yl)methyl)bicyclo[2.2.2]octan-1-yl)morpholine-3-carboxamide] |
| 48 | Cc1nc(N2CCc3c(c(C)nn3CC34CCC(N5CC6(COC6)C5)(CC3)CC4)C2)c2c(n1)c(C)nn2C [Compound No. 10, 6-(4-((3-methyl-5-(1,3,5-trimethyl-1H-pyrazolo[4,3-d]pyrimidin-7-yl)-4,5,6,7-tetrahydro-1H-pyrazolo[4,3-c]pyridin-1-yl)methyl)bicyclo[2.2.2]octan-1-yl)-2-oxa-6-azaspiro[3.3]heptane] |
| 289 | Cc1nc(N2CCc3c(c(C)nn3CC34CCC(N)(CC3)CC4)C2)c2c(n1)c(C)nn2C [Compound No. 26, 4-((3-methyl-5-(1,3,5-trimethyl-1H-pyrazolo[4,3-d]pyrimidin-7-yl)-4,5,6,7-tetrahydro-1H-pyrazolo[4,3-c]pyridin-1-yl)methyl)bicyclo[2.2.2]octan-1-amine] |
| 51 | Cc1cc(N2CCc3c(c(C)nn3CC34CCC(N(C)C)(CC3)CC4)C2)c2cnn(C)c2n1 [Compound No. 43, 4-((5-(1,6-dimethyl-1H-pyrazolo[3,4-b]pyridin-4-yl)-3-methyl-4,5,6,7-tetrahydro-1H-pyrazolo[4,3-c]pyridin-1-yl)methyl)-N,N-dimethylbicyclo[2.2.2]octan-1-amine] |
| 389 | Cc1cc(N2CCc3c(c(C)nn3CC34CCC(N5CCN(C)C(=O)C5)(CC3)CC4)C2)c2cnn(C)c2n1 [Compound No. 104, 4-(4-((5-(1,6-dimethyl-1H-pyrazolo[3,4-b]pyridin-4-yl)-3-methyl-4,5,6,7-tetrahydro-1H-pyrazolo[4,3-c]pyridin-1-yl)methyl)bicyclo[2.2.2]octan-1-yl)-1-methylpiperazin-2-one] |
| 44 | Cc1cc(N2CCc3c(c(C)nn3CC34CCC(N5CCN(C)CC5=O)(CC3)CC4)C2)c2cnn(C)c2n1 [Compound No. 108, 1-(4-((5-(1,6-dimethyl-1H-pyrazolo[3,4-b]pyridin-4-yl)-3-methyl-4,5,6,7-tetrahydro-1H-pyrazolo[4,3-c]pyridin-1-yl)methyl)bicyclo[2.2.2]octan-1-yl)-4-methylpiperazin-2-one] |
| 1180 | Cc1cc(N2CCc3c(c(C)nn3CC34CCC(n5ccnc5)(CC3)CC4)C2)c2cnn(C)c2n1 [Compound No. 119, 1-((4-(1H-imidazol-1-yl)bicyclo[2.2.2]octan-1-yl)methyl)-5-(1,6-dimethyl-1H-pyrazolo[3,4-b]pyridin-4-yl)-3-methyl-4,5,6,7-tetrahydro-1H-pyrazolo[4,3-c]pyridine] |
| 806 | Cc1cc(N2CCc3c(c(C)nn3CC34CCC(NC(=O)CN5CC(F)C5)(CC3)CC4)C2)c2cnn(C)c2n1 [Compound No. 133, N-(4-((5-(1,6-dimethyl-1H-pyrazolo[3,4-b]pyridin-4-yl)-3-methyl-4,5,6,7-tetrahydro-1H-pyrazolo[4,3-c]pyridin-1-yl)methyl)bicyclo[2.2.2]octan-1-yl)-2-(3-fluoroazetidin-1-yl)acetamide] |
| 8440 | Cc1cc(N2CCc3c(c(C)nn3CC34CCC(NC(=O)CO)(CC3)CC4)C2)c2cnn(C)c2n1 [Compound No. 135, N-(4-((5-(1,6-dimethyl-1H-pyrazolo[3,4-b]pyridin-4-yl)-3-methyl-4,5,6,7-tetrahydro-1H-pyrazolo[4,3-c]pyridin-1-yl)methyl)bicyclo[2.2.2]octan-1-yl)-2-hydroxyacetamide] |
| 178 | Cc1cc(N2CCc3c(c(C)nn3CC34CCC(NC(=O)CN5CC(O)C5)(CC3)CC4)C2)c2cnn(C)c2n1 [Compound No. 136, N-(4-((5-(1,6-dimethyl-1H-pyrazolo[3,4-b]pyridin-4-yl)-3-methyl-4,5,6,7-tetrahydro-1H-pyrazolo[4,3-c]pyridin-1-yl)methyl)bicyclo[2.2.2]octan-1-yl)-2-(3-hydroxyazetidin-1-yl)acetamide] |
| 331 | [2H]C([2H])([2H])n1ncc2c(N3CCc4c(c(C)nn4CC45CCC(N)(CC4)CC5)C3)cc(C)nc21 [Compound No. 140, 4-((3-methyl-5-(6-methyl-1-(methyl-d3)-1H-pyrazolo[3,4-b]pyridin-4-yl)-4,5,6,7-tetrahydro-1H-pyrazolo[4,3-c]pyridin-1-yl)methyl)bicyclo[2.2.2]octan-1-amine] |
| > 10000 | Cc1cc(N2CCc3c(c(C)nn3CC34CCC(NC(=O)OC(C)(C)C)(CC3)CC4)C2)c2ccncc2n1 [Compound No. 147, tert-butyl (4-((3-methyl-5-(2-methyl-1,7-naphthyridin-4-yl)-4,5,6,7-tetrahydro-1H-pyrazolo[4,3-c]pyridin-1-yl)methyl)bicyclo[2.2.2]octan-1-yl)carbamate] |
| 1350 | Cc1nn(CC23CCC(N)(CC2)CC3)c2c1CN(c1nc(N)nc3c1cnn3C)CC2 [compound 13, 4-(1-((4-aminobicyclo[2.2.2]octan-1-yl)methyl)-3-methyl-6,7-dihydro-1H-pyrazolo[4,3-c]pyridin-5(4H)-yl)-1-methyl-1H-pyrazolo[3,4-d]pyrimidin-6-amine] |
| 203 | Cc1nn(CC23CCC(N)(CC2)CC3)c2c1CN(c1nc(Cl)nc3cnn(C)c13)CC2 [compound 15, 4-((5-(5-chloro-1-methyl-1H-pyrazolo[4,3-d]pyrimidin-7-yl)-3-mehtyl-4,5,6,7-tetrahydro-1H-pyrazolo[4,3-c]pyridin-1-yl)methyl)bicyclo[2.2.2]octan-1-amine] |
| 443 | Cc1nc(N2CCc3c(c(C)nn3CC34CCC(N5CCCC5)(CC3)CC4)C2)c2cnn(C)c2n1 [compound 16, 1,6-dimethyl-4-(3-methyl-1-((4-(pyrrolidin-1-yl)bicyclo[2.2.2]octan-1-yl)methyl)-6,7-dihydro-1H-pyrazolo[4,3-c]pyridin-5(4H)-yl)-1H-pyrazolo[3,4-d]pyrimidine] |
| 199 | Cc1nc(N2CCc3c(c(C)nn3CC34CCC(N5CCCC5)(CC3)CC4)C2)c2c(n1)c(C)nn2C [compound 17, 1,3,5-trimethyl-7-(3-methyl-1-((4-(pyrrolidin-1-yl)bicyclo[2.2.2]octan-1-yl)methyl)-6,7-dihydro-1H-pyrazolo[4,3-c]pyridin-5(4H)-yl)-1H-pyrazolo[4,3-d]pyrimidine] |
| 77 | COCCNC12CCC(Cn3nc(C)c4c3CCN(c3nc(C)nc5c(C)nn(C)c35)C4)(CC1)CC2 [compound 18, N-(2-methoxyethyl)-4-((3-methyl-5-(1,3,5-trimethyl-1H-pyrazolo[4,3-d]pyrimidin-7-yl)-4,5,6,7-tetrahydro-1H-pyrazolo[4,3-c]pyridin-1-yl)methyl)bicyclo[2.2.2]octan-1-amine] |
| 186 | Cc1nc(N2CCc3c(c(C)nn3CC34CCC(N5CCOCC5)(CC3)CC4)C2)c2cnn(C)c2n1 [compound 19, 4-(4-((5-(1,6-dimethyl-1H-pyrazolo[3,4-d]pyrimidin-4-yl)-3-methyl-4,5,6,7-tetrahydro-1H-pyrazolo[4,3-c]pyridin-1-yl)methyl)bicyclo[2.2.2]octan-1-yl)morpholine] |

| Compound | IC50 [nM] |
| --- | --- |
| Cc1cc(N2CCc3c(c(C)nn3CC34CCC(NC(=O)[C@@H]5COCCN5)(CC3)CC4)C2)c2cnn(C)c2n1 [Compound No. 8, (S)—N-(4-((5-(1,6-dimethyl-1H-pyrazolo[3,4-b]pyridin-4-yl)-3-methyl-4,5,6,7-tetrahydro-1H-pyrazolo[4,3-c]pyridin-1-yl)methyl)bicyclo[2.2.2]octan-1-yl)morpholine-3-carboxamide] | 166 |
